According to patent publication US9957251B2 (Takeda Pharmaceutical Company Limited, priority 2014, dated 2018):
Where a name gives a salt, the structure may show the parent alone.

How the values were obtained:
CDK8/CycC = molecular target: T1, CDK8/CycC (Homo sapiens, UniProt P49336); assay: CDK8 inhibitory activity (TR-FRET, Kinase Tracer-236 displacement); format: binding; conditions: 1 μM of the test compound; for inhibition at 1 µM: read-out: Percent inhibition of CDK8 activity (%)
T1 construct: purchased Carna Biosciences
T1 sequence (P49336 whole entry): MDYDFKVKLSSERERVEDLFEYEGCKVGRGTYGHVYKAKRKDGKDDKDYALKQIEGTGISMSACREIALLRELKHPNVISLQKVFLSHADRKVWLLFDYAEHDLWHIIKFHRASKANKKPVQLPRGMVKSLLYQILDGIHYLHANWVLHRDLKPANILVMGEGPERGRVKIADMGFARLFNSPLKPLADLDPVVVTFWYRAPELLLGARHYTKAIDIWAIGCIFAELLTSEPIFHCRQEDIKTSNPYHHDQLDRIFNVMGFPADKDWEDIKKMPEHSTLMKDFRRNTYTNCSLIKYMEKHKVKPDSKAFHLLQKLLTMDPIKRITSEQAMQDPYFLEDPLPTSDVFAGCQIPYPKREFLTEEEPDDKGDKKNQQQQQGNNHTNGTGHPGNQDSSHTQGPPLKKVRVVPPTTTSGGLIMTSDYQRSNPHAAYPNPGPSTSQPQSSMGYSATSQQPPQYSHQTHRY
T1 sequence (P24863 whole entry partner): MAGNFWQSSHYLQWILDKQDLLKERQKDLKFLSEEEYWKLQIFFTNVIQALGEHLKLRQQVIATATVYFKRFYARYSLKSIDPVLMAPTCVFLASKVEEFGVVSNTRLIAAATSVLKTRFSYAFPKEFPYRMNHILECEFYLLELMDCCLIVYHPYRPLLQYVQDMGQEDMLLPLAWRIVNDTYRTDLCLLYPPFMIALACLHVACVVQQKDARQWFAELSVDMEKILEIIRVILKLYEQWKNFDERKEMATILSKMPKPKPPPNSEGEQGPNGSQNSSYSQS
Outline: (§1)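 Binding assay measuring displacement of Kinase Tracer-236 (60 nM in the added mix) by compound, using Eu-cryptate anti-GST antibody with CDK8/CycC (84 ng/mL) or CDC2L6/CycC (87 ng/mL) solutions. After 1 h at room temperature, TR-FRET read at 615 and 665 nm (excitation 320 nm).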

CDK19 (CDC2L6/CycC) = molecular target: T2, CDK19 (CDC2L6/CycC) (Homo sapiens, UniProt Q9BWU1); assay: CDK19 inhibitory activity (TR-FRET, Kinase Tracer-236 displacement); format: binding; conditions: 1 μM of the test compound; for inhibition at 1 µM: read-out: Percent inhibition of CDK19 activity (%)
T2 construct: purchased Carna Biosciences
T2 sequence (Q9BWU1 whole entry): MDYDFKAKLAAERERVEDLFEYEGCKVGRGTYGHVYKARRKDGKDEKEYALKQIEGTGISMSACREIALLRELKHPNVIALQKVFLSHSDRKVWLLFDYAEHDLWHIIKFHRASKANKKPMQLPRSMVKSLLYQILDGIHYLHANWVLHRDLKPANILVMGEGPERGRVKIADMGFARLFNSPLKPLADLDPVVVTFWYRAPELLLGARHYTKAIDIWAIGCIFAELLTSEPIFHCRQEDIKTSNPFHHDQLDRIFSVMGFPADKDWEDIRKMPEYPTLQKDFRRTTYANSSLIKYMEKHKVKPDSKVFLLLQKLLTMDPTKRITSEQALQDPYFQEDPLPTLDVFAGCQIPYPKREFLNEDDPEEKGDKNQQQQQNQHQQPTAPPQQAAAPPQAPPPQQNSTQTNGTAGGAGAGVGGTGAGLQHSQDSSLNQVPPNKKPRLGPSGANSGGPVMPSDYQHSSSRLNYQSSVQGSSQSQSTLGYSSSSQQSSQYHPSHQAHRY
T2 sequence (P24863 whole entry partner): as the sequence (P24863 whole entry partner) above
Outline: as §1

[1] = tested on: human multiple myeloma RPMI8226 cells; assay: Inhibitory activity against human multiple myeloma RPMI8226 cell growth (CellTiter-Glo); format: cell-based; conditions: 1 μM of the test compound, cultured for 8 days; for inhibition at 1 µM: Homo sapiens, RPMI-8226, 192 h, read-out: Percent inhibition of RPMI8226 cell growth (%)
Outline: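 RPMI8226 cells (300/well) cultured 1 day at 37 °C, 5% CO2, then given compound at 1 μM for 8 days. ATP luminescence (CellTiter-Glo) read; percent inhibition relative to 0.1% DMSO wells.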

SMILES	inhibition at 1 µM (CDK8/CycC)	inhibition at 1 µM (CDK19 (CDC2L6/CycC))	inhibition at 1 µM [1]	Percent inhibition of CDK8 activity (%) (CDK8/CycC; sulfate, 1 µM)	Percent inhibition of CDK19 activity (%) (CDK19 (CDC2L6/CycC); sulfate, 1 µM)	Percent inhibition of RPMI8226 cell growth (%) ([1]; sulfate, 1 µM)
O=C(/C=C/c1cnccc1-c1cnn(C2CC2)c1)Nc1ccc2c(c1)CN(CC(F)(F)C(F)(F)F)CC2 [Example 300, (2E)-3-(4-(1-cyclopropyl-1H-pyrazol-4-yl)pyridin-3-yl)-N-(2-(2,2,3,3,3-pentafluoropropyl)-1,2,3,4-tetrahydroisoquinolin-7-yl)acrylamide]	97%	94%	57%			
O=C(/C=C/c1cnccc1-c1cnn(C2CC2)c1)Nc1ccc(CN2CC3(COC3)C2)cc1 [Example 308, (2E)-3-(4-(1-cyclopropyl-1H-pyrazol-4-yl)pyridin-3-yl)-N-(4-(2-oxa-6-azaspiro [3.3]hept-6-ylmethyl)phenyl)acrylamide]	110%	98%	56%			
Cc1noc(C)c1-c1ccc(NC(=O)/C=C/c2cnccc2-c2cnn(C3CC3)c2)c(F)c1 [Example 311, (2E)-3-(4-(1-cyclopropyl-1H-pyrazol-4-yl)pyridin-3-yl)-N-(4-(3,5-dimethyl-1,2-oxazol-4-yl)-2-fluorophenyl)acrylamide]	103%	98%	58%			
O=C(/C=C/c1cnccc1-c1cnn(C2CC2)c1)Nc1ccc2c(c1)CCN(CC(F)(F)F)C2 [Example 316, (2E)-3-(4-(1-Cyclopropyl-1H-pyrazol-4-yl)pyridin-3-yl)-N-(2-(2,2,2-trifluoroethyl)-1,2,3,4-tetrahydroisoquinolin-6-yl)acrylamide]	103%	98%	49%			
O=C(/C=C/c1cnccc1-c1cnn(C2CC2)c1)Nc1ccc2c(c1)CN(CC(F)(F)F)C2 [Example 319, (2E)-3-(4-(1-Cyclopropyl-1H-pyrazol-4-yl)pyridin-3-yl)-N-(2-(2,2,2-trifluoroethyl)-2,3-dihydro-1H-isoindol-5-yl)acrylamide]	103%	101%	47%			
COC1CN(Cc2ccc(NC(=O)/C=C/c3cnccc3-c3cnn(C4CC4)c3)cc2)C1 [Example 321, (2E)-3-(4-(1-cyclopropyl-1H-pyrazol-4-yl)pyridin-3-yl)-N-(4-((3-methoxyazetidin-1-yl)methyl)phenyl)acrylamide]	101%	99%	59%			
CC1CN(Cc2ccc(NC(=O)/C=C/c3cnccc3-c3cnn(C4CC4)c3)cc2)C1 [Example 322, (2E)-3-(4-(1-cyclopropyl-1H-pyrazol-4-yl)pyridin-3-yl)-N-(4-((3-methylazetidin-1-yl)methyl)phenyl)acrylamide]	102%	97%	55%			
Cn1cc(-c2c(F)cncc2/C=C/C(=O)Nc2ccc3c(c2)CN(CC(F)(F)F)C3)cn1 [Example 327, (2E)-3-(5-Fluoro-4-(1-methyl-1H-pyrazol-4-yl)pyridin-3-yl)-N-(2-(2,2,2-trifluoroethyl)-2,3-dihydro-1H-isoindol-5-yl)acrylamide]	106%	104%	56%			
O=C(/C=C/c1cnccc1-c1cnn(C2CC2)c1)Nc1ccc(COCC(F)(F)F)cc1F [Example 330, (2E)-3-(4-(1-Cyclopropyl-1H-pyrazol-4-yl)pyridin-3-yl)-N-(2-fluoro-4-((2,2,2-trifluoroethoxy)methyl)phenyl)acrylamide]	101%	96%	53%			
O=C(/C=C/c1cncc(F)c1-c1cnn(C2CC2)c1)Nc1ccc2c(c1)OCCO2 [Example 331, (2E)-3-(4-(1-cyclopropyl-1H-pyrazol-4-yl)-5-fluoropyridin-3-yl)-N-(2,3-dihydro-1,4-benzodioxin-6-yl)acrylamide]	103%	98%	65%			
CC(C)(O)Cc1ccc(NC(=O)/C=C/c2cncc(F)c2-c2cnn(C3CC3)c2)c(F)c1 [Example 332, (2E)-3-(4-(1-Cyclopropyl-1H-pyrazol-4-yl)-5-fluoropyridin-3-yl)-N-(2-fluoro-4-(2-hydroxy-2-methylpropyl)phenyl)acrylamide]	102%	99%	60%			
O=C(/C=C/c1cncc(F)c1-c1cnn(C2CC2)c1)Nc1ccc(CN2CC3CC(C2)O3)cc1 [Example 336, (2E)-3-(4-(1-Cyclopropyl-1H-pyrazol-4-yl)-5-fluoropyridin-3-yl)-N-(4-(6-oxa-3-azabicyclo[3.1.1]hept-3-ylmethyl)phenyl)acrylamide]	102%	101%	59%			
O=C(/C=C/c1cnccc1-c1cnn(C2CC2)c1)Nc1ccc2c(c1)CN(CC(F)(F)CO)C2 [Example 340, (2E)-3-(4-(1-cyclopropyl-1H-pyrazol-4-yl)pyridin-3-yl)-N-(2-(2,2-difluoro-3-hydroxypropyl)-2,3-dihydro-1H-isoindol-5-yl)acrylamide]	102%	96%	65%			
Cn1cc(-c2ccncc2/C=C/C(=O)Nc2ccc3c(c2)CN(CC(F)F)C3)cn1 [Example 342, (2E)-N-(2-(2,2-difluoroethyl)-2,3-dihydro-1H-isoindol-5-yl)-3-(4-(1-methyl-1H-pyrazol-4-yl)pyridin-3-yl)acrylamide]	105%	94%	63%			
COC1CN(Cc2ccc(NC(=O)/C=C/c3cncc(F)c3-c3cnn(C4CC4)c3)c(F)c2)C1 [Example 343, (2E)-3-(4-(1-Cyclopropyl-1H-pyrazol-4-yl)-5-fluoropyridin-3-yl)-N-(2-fluoro-4-((3-methoxyazetidin-1-yl)methyl)phenyl)acrylamide]	103%	96%	63%			
COC1CN(Cc2ccc(NC(=O)/C=C/c3cncc(F)c3-c3cnn(C4CC4)c3)cc2)C1 [Example 345, (2E)-3-(4-(1-Cyclopropyl-1H-pyrazol-4-yl)-5-fluoropyridin-3-yl)-N-(4-((3-methoxyazetidin-1-yl)methyl)phenyl)acrylamide]	101%	100%	63%			
CC(C)(F)Cc1ccc(NC(=O)/C=C/c2cncc(F)c2-c2cnn(C3CC3)c2)cc1 [Example 348, (2E)-3-(4-(1-Cyclopropyl-1H-pyrazol-4-yl)-5-fluoropyridin-3-yl)-N-(4-(2-fluoro-2-methylpropyl)phenyl)acrylamide]	99%	101%	62%			
Cn1cc(-c2c(F)cncc2/C=C/C(=O)Nc2ccc3c(c2)CN(CC(C)(F)F)C3)cn1 [Example 351, (2E)-N-(2-(2,2-difluoropropyl)-2,3-dihydro-1H-isoindol-5-yl)-3-(5-fluoro-4-(1-methyl-1H-pyrazol-4-yl)pyridin-3-yl)acrylamide]	106%	100%	63%			
Cn1cnc2ccc(-c3c(F)cncc3/C=C/C(=O)Nc3ccc4c(c3)CN(CC(F)(F)F)C4)cc21 [Example 357, (2E)-3-(5-fluoro-4-(1-methyl-1H-benzimidazol-6-yl)pyridin-3-yl)-N-(2-(2,2,2-trifluoroethyl)-2,3-dihydro-1H-isoindol-5-yl)acrylamide]	101%	96%	69%			
Cn1cnc2ccc(-c3c(F)cncc3/C=C/C(=O)Nc3ccc(CN4CC(F)(F)C4)cc3)cc21 [Example 358, (2E)-N-(4-((3,3-Difluoroazetidin-1-yl)methyl)phenyl)-3-(5-fluoro-4-(1-methyl-1H-benzimidazol-6-yl)pyridin-3-yl)acrylamide]	87%	101%	67%			
Cn1cc(-c2ccncc2/C=C/C(=O)Nc2ccc(N3CC(F)(F)C3)cc2)cn1 [Example 363, (2E)-N-(4-(3,3-difluoroazetidin-1-yl)phenyl)-3-(4-(1-methyl-1H-pyrazol-4-yl)pyridin-3-yl)acrylamide]	105%	99%	50%			
O=C(/C=C/c1cnccc1-c1cnn(C2CC2)c1)Nc1ccc(CN2CC(F)C2)cc1 [Example 365, (2E)-3-(4-(1-Cyclopropyl-1H-pyrazol-4-yl)pyridin-3-yl)-N-(4-((3-fluoroazetidin-1-yl)methyl)phenyl)acrylamide]	107%	99%	58%			
O=C(/C=C/c1cnccc1-c1cnn(C2CC2)c1)Nc1ccc(CN2CC(F)(F)C2)cc1F [Example 370, (2E)-3-(4-(1-cyclopropyl-1H-pyrazol-4-yl)pyridin-3-yl)-N-(4-((3,3-difluoroazetidin-1-yl)methyl)-2-fluorophenyl)acrylamide]	105%	74%	51%			
O=C(/C=C/c1cnccc1-c1cnn(C2CC2)c1)Nc1ccc(CN2CC(F)(F)C2)cc1 [Example 373, (2E)-3-(4-(1-Cyclopropyl-1H-pyrazol-4-yl)pyridin-3-yl)-N-(4-((3,3-difluoroazetidin-1-yl)methyl)phenyl)acrylamide sulfate]				101%	101%	70%
